Laboratory results published in ChEMBL document CHEMBL3526141, “Characterization of human liver enzymes involved in the biotransformation of boceprevir, a hepatitis C virus protease inhibitor” (Drug Metab Dispos, 2011).

Columns and labels:
[1] = biological target: T1, Aldo-keto reductase family 1 member C3 (Homo sapiens, UniProt P42330); assay: Drug metabolism in human recombinant […] HEK293 cells treated with 20 uM boceprevir assessed as 100 uM flufenamic acid-mediated inhibition of AKR1C3-mediated metabolite formation after 120 mins in presence of NADPH by LC-MS/MS/FSA method; type: ADME, cell-based; design: interact cpd dose 100 uM; settings: hek293, 2 h
T1 sequence (P42330 whole entry): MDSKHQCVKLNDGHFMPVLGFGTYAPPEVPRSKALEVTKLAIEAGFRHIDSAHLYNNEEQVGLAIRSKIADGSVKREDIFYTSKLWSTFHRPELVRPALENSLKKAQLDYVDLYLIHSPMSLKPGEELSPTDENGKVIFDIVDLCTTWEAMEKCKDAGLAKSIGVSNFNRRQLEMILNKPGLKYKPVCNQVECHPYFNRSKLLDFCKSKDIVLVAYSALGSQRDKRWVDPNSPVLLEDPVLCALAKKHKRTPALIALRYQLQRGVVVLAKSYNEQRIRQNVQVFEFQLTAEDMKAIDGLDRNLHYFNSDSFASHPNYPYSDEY

[2] = Drug metabolism in human liver S9 fraction treated with 20 uM assessed as compound formation in presence of NADPH generating system by LC-MS/MS/FSA method; type: ADME, subcellular
[3] = biological target: T2, Cytochrome P450 4F12 (Homo sapiens, UniProt Q9HCS2); assay: Drug metabolism assessed as human CYP4F12-mediated compound formation from 5 to 20 uM [14C]boceprevir after 120 mins by LC-MS/FSA method relative to total [14C]boceprevir; type: ADME; settings: recombinant enzyme, 2 h
T2 sequence (Q9HCS2 whole entry): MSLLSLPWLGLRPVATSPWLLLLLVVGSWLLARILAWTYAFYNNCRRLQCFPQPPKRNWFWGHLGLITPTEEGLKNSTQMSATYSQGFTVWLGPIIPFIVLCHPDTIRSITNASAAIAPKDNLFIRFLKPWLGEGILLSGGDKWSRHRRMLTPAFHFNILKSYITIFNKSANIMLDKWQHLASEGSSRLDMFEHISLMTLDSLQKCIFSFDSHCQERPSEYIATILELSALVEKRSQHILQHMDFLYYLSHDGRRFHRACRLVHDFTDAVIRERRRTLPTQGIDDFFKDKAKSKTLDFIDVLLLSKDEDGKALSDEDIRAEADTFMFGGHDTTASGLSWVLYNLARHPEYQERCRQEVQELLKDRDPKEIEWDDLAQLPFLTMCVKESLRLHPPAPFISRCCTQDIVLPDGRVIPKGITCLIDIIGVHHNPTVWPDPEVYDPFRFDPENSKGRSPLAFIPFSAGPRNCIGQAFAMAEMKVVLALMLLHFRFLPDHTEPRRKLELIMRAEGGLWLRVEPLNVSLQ

[4] = test system: Liver cytosol; assay: Drug metabolism in human liver cytosol at 20 uM assessed as (1R,2S,5S)-N-((2S,3R)-4-amino-1-cyclobutyl-3-hydroxy-4-oxobutan-2-yl)-3-((S)-2-(3-tert-butylureido)-3,3-dimethylbutanoyl)-6,6-dimethyl-3-azabicyclo[3.1.0]hexane-2-carboxamide formation at 20 uM after 60 mins in presence of ketoconazole by LC-MS/MS/FSA method; type: ADME; settings: 1 h
[5] = Drug metabolism in human liver S9 fraction at 20 uM assessed as (1R,2S,5S)-N-((2S,3R)-4-amino-1-cyclobutyl-3-hydroxy-4-oxobutan-2-yl)-3-((S)-2-(3-tert-butylureido)-3,3-dimethylbutanoyl)-6,6-dimethyl-3-azabicyclo[3.1.0]hexane-2-carboxamide formation in presence of BNPP by LC-MS/MS/FSA method; type: ADME, subcellular; settings: s9, 20 µM
[6] = test system: Liver cytosol; assay: Drug metabolism in human liver cytosol at 20 uM assessed as (1R,2S,5S)-N-((2S,3R)-4-amino-1-cyclobutyl-3-hydroxy-4-oxobutan-2-yl)-3-((S)-2-(3-tert-butylureido)-3,3-dimethylbutanoyl)-6,6-dimethyl-3-azabicyclo[3.1.0]hexane-2-carboxamide formation in presence of quercetin by LC-MS/MS/FSA method; type: ADME
[7] = test system: Liver cytosol; assay: Drug metabolism in human liver cytosol at 20 uM assessed as (1R,2S,5S)-N-((2S,3R)-4-amino-1-cyclobutyl-3-hydroxy-4-oxobutan-2-yl)-3-((S)-2-(3-tert-butylureido)-3,3-dimethylbutanoyl)-6,6-dimethyl-3-azabicyclo[3.1.0]hexane-2-carboxamide formation in presence of flufenamic acid by LC-MS/MS/FSA method; type: ADME
[8] = test system: Liver cytosol; assay: Drug metabolism in human liver cytosol at 20 uM assessed as (1R,2S,5S)-N-((2S,3R)-4-amino-1-cyclobutyl-3-hydroxy-4-oxobutan-2-yl)-3-((S)-2-(3-tert-butylureido)-3,3-dimethylbutanoyl)-6,6-dimethyl-3-azabicyclo[3.1.0]hexane-2-carboxamide formation in presence of menadione by LC-MS/MS/FSA method; type: ADME
[9] = biological target: T1, Aldo-keto reductase family 1 member C3; assay: Activity of human recombinant AKR1C3 expressed in HEK293 cells assessed as (1R,2S,5S)-N-((2S,3R)-4-amino-1-cyclobutyl-3-hydroxy-4-oxobutan-2-yl)-3-((S)-2-(3-tert-butylureido)-3,3-dimethylbutanoyl)-6,6-dimethyl-3-azabicyclo[3.1.0]hexane-2-carboxamide formation per mg protein after 120 mins in presence of NADPH by LC-MS/MS/FSA method; type: ADME, cell-based; settings: hek293, 2 h
[10] = biological target: T3, Aldo-keto reductase family 1 member C2 (Homo sapiens, UniProt P52895); assay: Activity of human recombinant AKR1C2 expressed in HEK293 cells assessed as (1R,2S,5S)-N-((2R,3R)-4-amino-1-cyclobutyl-3-hydroxy-4-oxobutan-2-yl)-3-((S)-2-(3-tert-butylureido)-3,3-dimethylbutanoyl)-6,6-dimethyl-3-azabicyclo[3.1.0]hexane-2-carboxamide formation at 20 uM after 120 mins in presence of NADPH by LC-MS/MS/FSA method; type: ADME, cell-based; settings: hek293, 2 h
T3 sequence (P52895 whole entry): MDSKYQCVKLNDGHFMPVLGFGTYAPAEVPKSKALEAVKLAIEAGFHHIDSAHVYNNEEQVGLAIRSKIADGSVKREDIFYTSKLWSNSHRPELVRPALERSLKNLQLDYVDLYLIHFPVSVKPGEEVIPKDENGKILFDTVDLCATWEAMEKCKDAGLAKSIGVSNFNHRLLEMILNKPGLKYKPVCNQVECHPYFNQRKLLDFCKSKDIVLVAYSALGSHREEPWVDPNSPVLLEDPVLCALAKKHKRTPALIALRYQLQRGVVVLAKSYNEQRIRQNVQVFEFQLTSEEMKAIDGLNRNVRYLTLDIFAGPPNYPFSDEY

[11] = test system: Liver microsome; assay: Drug metabolism in human liver microsomes treated with 5 uM [14C]boceprevir assessed as compound formation by LC-MS/FSA method relative to total [14C]boceprevir; type: ADME
[12] = test system: Liver cytosol; assay: (§1) Drug metabolism in human liver cytosol assessed as (1R,2S,5S)-N-((2R,3R)-4-amino-1-cyclobutyl-3-hydroxy-4-oxobutan-2-yl)-3-((S)-2-(3-tert-butylureido)-3,3-dimethylbutanoyl)-6,6-dimethyl-3-azabicyclo[3.1.0]hexane-2-carboxamide formation per mg protein after 60 mins by LC-MS/MS/FSA method; type: ADME, tissue-based; settings: 1 h
[13] = test system: Liver cytosol; assay: as §1, with “Ratio of Vmax to Km for drug” for “Drug”; type: ADME; settings: 1 h

Q: What does the source list for CC(C)(C)NC(=O)N[C@H](C(=O)N1C[C@H]2[C@@H]([C@H]1C(=O)N[C@@H](CC1CCC1)[C@@H](O)C(N)=O)C2(C)C)C(C)(C)C?
A: inhibition (INH) [1]: 93%; Compound recovery [2]: 28%

Q: Which Compound recovery [3] does the source give for CC(C)(C)NC(=O)N[C@H](C(=O)N1C[C@H]2[C@@H]([C@H]1C(=O)NC(CC1CCC1)C(=O)C(N)=O)C2(C)C)C(C)(C)C (stereo partly drawn) [BOCEPREVIR] here?
A: metabolite_not_detected

Q: And the Compound recovery [4]?
A: metabolite_detected

Q: And the Compound recovery [5]?
A: metabolite_not_detected

Q: What about the Compound recovery [6] of the same molecule?
A: metabolite_not_detected

Q: And the Compound recovery [7]?
A: metabolite_not_detected

Q: And the Compound recovery [8]?
A: metabolite_not_detected

Q: What about the Vmax [9] of the same molecule?
A: 639 pmol/min

Q: And the Compound recovery [10]?
A: metabolite_detected

Q: What does the source list for CC(C)(C)NC(=O)N[C@H](C(=O)N1C[C@H]2[C@@H]([C@H]1C(=O)N[C@H](CC1CCC1)C(=O)C(N)=O)C2(C)C)C(C)(C)C?
A: Compound recovery [11]: 0.31%; Vmax [12]: 0.846 pmol/min; Vmax/Km [13]: 30.9 µL/min
